Source: the supplement of paper PMC8617591

Legend:
[1] = system: Mycobacterium tuberculosis Erdman (autoluminescent); assay: total FIC50 (Loewe) at 50% inhibition, three-drug combination (log2); higher = more antagonistic
Description: (§1)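 DiaMOND equipotent three-drug combination dose responses (10 doses, 1.5- or 2-fold spacing, centred on IC90) against autoluminescent M. tuberculosis Erdman in 8 in vitro models. Read-out is OD600, or luminescence for the intracellular and dormancy models, normalised to untreated wells. Hill-fit Einf, AUC25 and GRinf are potency metrics; FIC50 and FIC90 are total Loewe fractional inhibitory concentrations as log2 (negative = synergy).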

[2] = system: Mycobacterium tuberculosis Erdman (autoluminescent); assay: total FIC90 (Loewe) at 90% inhibition, three-drug combination (log2); higher = more antagonistic
Description: as §1

[3] = system: Mycobacterium tuberculosis Erdman (autoluminescent); assay: Einf, fitted maximum growth inhibition of three-drug combination (fraction); higher = stronger maximal inhibition
Description: as §1

[4] = system: Mycobacterium tuberculosis Erdman (autoluminescent); assay: AUC25, normalised area under dose response up to IC25 (three-drug combination) (fraction (0-1)); higher = more potent at low dose
Description: as §1

[5] = system: Mycobacterium tuberculosis Erdman (autoluminescent); assay: GRinf, maximum normalised growth rate inhibition (three-drug combination) (unitless (-1 to 1)); higher = less effect (negative = killing)
Description: as §1

COc1nc2ccc(Br)cc2cc1[C@@H](c1ccccc1)[C@@](O)(CCN(C)C)c1cccc2ccccc12 [bedaquiline] + COc1c(N2C[C@@H]3CCCN[C@@H]3C2)c(F)cc2c(=O)c(C(=O)O)cn(C3CC3)c12 [moxifloxacin] + CO[C@H]1/C=C/O[C@@]2(C)Oc3c(C)c(O)c4c(O)c(c(/C=N/N5CCN(C6CCCC6)CC5)c(O)c4c3C2=O)NC(=O)/C(C)=C\C=C\[C@H](C)[C@H](O)[C@@H](C)[C@@H](O)[C@@H](C)[C@H](OC(C)=O)[C@@H]1C [rifapentine]
Details	AUC25, [4]	Einf, [3]	GRinf, [5]	total FIC50, [1]	total FIC90, [2]
in vitro model: acidic pH 5.7, time point: constant (~7 days, model-specific)	0.0678	0.851	-0.0721	0.823	–
in vitro model: acidic pH 5.7, time point: terminal (~4-5 doublings, model-specific)	0.0653	0.994	-0.308	1.07	0.708
in vitro model: intracellular J774, time point: constant = terminal	–	0.932	-0.235	–	0.946

Details	AUC25, [4]	Einf, [3]	GRinf, [5]	total FIC50, [1]	total FIC90, [2]
in vitro model: butyrate, time point: constant (~7 days, model-specific)	0.1	0.952	-0.132	0.844	0.676
in vitro model: butyrate, time point: terminal (~4-5 doublings, model-specific)	0.0773	0.977	-0.0985	0.876	0.991
in vitro model: cholesterol 0.05 mM, time point: constant (~7 days, model-specific)	0.0837	0.716	-0.256	0.531	–
in vitro model: cholesterol 0.05 mM, time point: terminal (~4-5 doublings, model-specific)	0.0604	0.905	-0.183	0.923	0.462
in vitro model: cholesterol-high 0.2 mM, time point: constant (~7 days, model-specific)	0.0607	0.949	-0.394	0.723	0.4
in vitro model: cholesterol-high 0.2 mM, time point: terminal (~4-5 doublings, model-specific)	0.0498	1	-0.57	0.949	0.645
in vitro model: dormancy (butyrate + nitrate, low O2), time point: constant (~7 days, model-specific)	0.0857	0.928	0.0745	0.868	1.67
in vitro model: dormancy (butyrate + nitrate, low O2), time point: terminal (~4-5 doublings, model-specific)	0.0736	0.997	-0.28	1.05	1.35
in vitro model: standard 7H9 glycerol, time point: constant = terminal	0.0761	0.966	-0.0766	0.73	0.338
in vitro model: valerate, time point: constant (~7 days, model-specific)	0.063	0.915	-0.117	1.01	–
in vitro model: valerate, time point: terminal (~4-5 doublings, model-specific)	0.0335	0.946	-0.0711	0.995	0.711

COc1nc2ccc(Br)cc2cc1[C@@H](c1ccccc1)[C@@](O)(CCN(C)C)c1cccc2ccccc12 [bedaquiline] + COc1c(N2C[C@@H]3CCCN[C@@H]3C2)c(F)cc2c(=O)c(C(=O)O)cn(C3CC3)c12 [moxifloxacin] + CO[C@H]1/C=C/O[C@@]2(C)Oc3c(C)c(O)c4c(O)c(c(/C=N/N5CCN(C)CC5)c(O)c4c3C2=O)NC(=O)/C(C)=C\C=C\[C@H](C)[C@H](O)[C@@H](C)[C@@H](O)[C@@H](C)[C@H](OC(C)=O)[C@@H]1C [rifampicin]
Details	AUC25, [4]	Einf, [3]	GRinf, [5]	total FIC50, [1]	total FIC90, [2]
in vitro model: acidic pH 5.7, time point: constant (~7 days, model-specific)	0.0637	0.833	-0.0329	0.708	–
in vitro model: acidic pH 5.7, time point: terminal (~4-5 doublings, model-specific)	0.0621	0.98	-0.13	1.07	0.594
in vitro model: intracellular J774, time point: constant = terminal	–	0.938	-0.427	–	0.931

Details	AUC25, [4]	Einf, [3]	GRinf, [5]	total FIC50, [1]	total FIC90, [2]
in vitro model: butyrate, time point: constant (~7 days, model-specific)	0.12	0.964	-0.414	0.594	0.579
in vitro model: butyrate, time point: terminal (~4-5 doublings, model-specific)	0.105	0.99	-0.247	0.573	1.1
in vitro model: cholesterol 0.05 mM, time point: constant (~7 days, model-specific)	0.0826	0.745	-0.166	0.0975	–
in vitro model: cholesterol 0.05 mM, time point: terminal (~4-5 doublings, model-specific)	0.074	0.866	-0.045	1.13	-0.616
in vitro model: cholesterol-high 0.2 mM, time point: constant (~7 days, model-specific)	0.057	0.957	-0.452	0.677	0.0311
in vitro model: cholesterol-high 0.2 mM, time point: terminal (~4-5 doublings, model-specific)	0.0547	1	-0.61	0.955	0.594
in vitro model: dormancy (butyrate + nitrate, low O2), time point: constant (~7 days, model-specific)	0.0876	0.925	0.215	0.688	0.901
in vitro model: dormancy (butyrate + nitrate, low O2), time point: terminal (~4-5 doublings, model-specific)	0.0619	0.982	-0.201	0.97	1.03
in vitro model: standard 7H9 glycerol, time point: constant = terminal	0.0774	0.96	-0.141	0.732	–
in vitro model: valerate, time point: constant (~7 days, model-specific)	0.046	0.884	-0.0825	1.19	–
in vitro model: valerate, time point: terminal (~4-5 doublings, model-specific)	0.0316	0.953	-0.044	1.1	0.726

COc1nc2ccc(Br)cc2cc1[C@@H](c1ccccc1)[C@@](O)(CCN(C)C)c1cccc2ccccc12 [bedaquiline] + COc1c(N2C[C@@H]3CCCN[C@@H]3C2)c(F)cc2c(=O)c(C(=O)O)cn(C3CC3)c12 [moxifloxacin] + NC(=O)c1cnccn1 [pyrazinamide]
Details	AUC25, [4]	Einf, [3]	GRinf, [5]	total FIC50, [1]	total FIC90, [2]
in vitro model: acidic pH 5.7, time point: constant (~7 days, model-specific)	0.0871	0.847	-0.43	0.0701	–
in vitro model: acidic pH 5.7, time point: terminal (~4-5 doublings, model-specific)	0.0844	0.984	-0.325	0.276	-0.165
in vitro model: intracellular J774, time point: constant = terminal	–	0.982	-0.385	–	0.89

Details	AUC25, [4]	Einf, [3]	GRinf, [5]	total FIC50, [1]	total FIC90, [2]
in vitro model: butyrate, time point: constant (~7 days, model-specific)	0.108	0.952	-0.798	0.562	1.12
in vitro model: butyrate, time point: terminal (~4-5 doublings, model-specific)	0.0863	0.987	-0.741	0.738	1.18
in vitro model: cholesterol 0.05 mM, time point: constant (~7 days, model-specific)	0.113	0.762	-0.387	–	–
in vitro model: cholesterol 0.05 mM, time point: terminal (~4-5 doublings, model-specific)	0.115	0.95	-0.419	0.205	2.28
in vitro model: cholesterol-high 0.2 mM, time point: constant (~7 days, model-specific)	0.0866	0.981	-0.58	0.399	–
in vitro model: cholesterol-high 0.2 mM, time point: terminal (~4-5 doublings, model-specific)	0.0915	1	-0.586	0.406	0.558
in vitro model: dormancy (butyrate + nitrate, low O2), time point: constant (~7 days, model-specific)	0.0687	0.928	0.247	-0.56	-0.988
in vitro model: dormancy (butyrate + nitrate, low O2), time point: terminal (~4-5 doublings, model-specific)	0.0596	0.987	-0.0885	0.109	-0.187
in vitro model: standard 7H9 glycerol, time point: constant = terminal	0.0806	0.969	-0.108	–	–
in vitro model: valerate, time point: constant (~7 days, model-specific)	0.102	0.916	-0.131	0.831	–
in vitro model: valerate, time point: terminal (~4-5 doublings, model-specific)	0.06	0.949	-0.0556	0.778	1.03
